The values below come from US9688957B2, “Hydrogel compositions for use in promoting tubulogenesis” (Wisconsin Alumni Research Foundation, priority 2014, dated 2017).

Common to all, as to format: cell-based, human
For experiment [1], the system named is HUVECs. The experiment can be described thus: HUVEC tubulogenesis (total CLS length) in 3D PEG hydrogel array spots. Particulars: 10 μM SU5416, 24 hours. The procedure:
(§1) During proliferation and tubulogenesis experiments, the arrays of encapsulated cells were cultured in growth medium alone or with 10 μM SU5416 for 24 hours only. Afterward, the cells were incubated for 5 hours in growth medium with 20 μM 5-ethynyl-2′-deoxyuridine (EdU) (Invitrogen) as a proliferation marker and, if appropriate, 10 μM SU5416. Afterward, the arrays were stained with Cell Tracker Green in the same manner as the viability assay, but without Hoechst nuclear stain or ethidium homodimer. The arrays were washed with 1×PBS, fixed for 30 minutes in 10% buffered formalin and stained using the Click-iT EdU 594 proliferation kit (Invitrogen). The staining procedure was slightly modified from the manufacturer's instructions, as Alexa Fluor® 594 was diluted to half the recommended concentration. The arrays were soaked in 1×PBS overnight and photographed using a Nikon TE300 fluorescence microscope. Proliferation was quantified by counting the number of EdU-positive cells and dividing by the total number of nuclei in the post. Tubulogenesis was quantified by manually measuring total capillary-like structure (CLS) length in each post as labeled by Cell Tracker Green. To obtain confocal microscopy images, the hydrogel arrays were mounted in Prolong Gold antifade solution (Invitrogen) and photographed on a Nikon A1R-Si confocal microscope.
Hydrogel solutions were created by combining 36, 42 or 60 mg/mL 20 kDa 8-arm norbornene-functionalized PEG with 0 to 2 mM CRGDS (SEQ ID NO:2) adhesion peptide, additional CRDGS (SEQ ID NO:32) scrambled adhesion peptide to maintain a total adhesion peptide concentration of 2 mM, […] (SEQ ID NO:27) crosslinking peptide at a 2× molar excess concentration to PEG and 0.05% IRGACURE 2959 photoinitiator in phosphate buffered saline. The solutions were polymerized into hydrogels under UV light (90 mW/cm^2, 365 nm, 2 seconds). HUVECs were encapsulated at a density of 2.0×10^7 […] in hydrogels and incubated in M199 supplemented with EGM2 growth supplement. The cells were stained with Cell Tracker Green CMFDA, photographed 24 hours after seeding and scored for total tubule length in the spots. Results are shown FIGS. 18, 28 and 29.

Experiment [2] concerns HUVECs. The experiment can be described thus: HUVEC proliferation with VEGFR2 inhibition on tissue culture polystyrene (EdU). The following applies: 10 μM SU5416, HUVECs on TCPS, 24 hours.
Protocol: HUVECs were plated in tissue culture polystyrene (TCPS) 24-well plates at a density of 5.0×10^4 cells/cm^2. The cells were grown in growth medium alone or with 10 μM SU5416 for 24 hours. Afterward, the medium was changed to fresh growth medium with or without 10 μM SU5416 and 20 μM EdU. After 5 hours of incubation, the cells were fixed in 10% buffered formalin for 30 minutes and stained using the Click-iT EdU 488 proliferation kit (Invitrogen). The staining procedure was slightly modified from the manufacturer's instructions, as Alexa Fluor® 488 was diluted to half the recommended concentration. The cells were photographed using a Nikon TE300 fluorescence microscope and proliferation was quantified via by counting nuclei staining positive for EdU and normalizing the number to total nuclei.
The subject of experiment [3] is HUVECs. The experiment can be described thus: HUVEC tubulogenesis in growth factor-reduced MATRIGEL spots. The following applies: 10 μM SU5416, HUVECs in growth factor-reduced MATRIGEL, 48 hours. The procedure: HUVECs were suspended in growth factor-reduced MATRIGEL® (BD Biosciences, San Jose, Calif.) at a density of 2×10^7 cells/mL. A 200 μm thick PDMS sheet of microwells was placed on top of a glass slide and the MATRIGEL®-cell suspension was pipetted as 0.4 μl droplets into the microwells. These arrays of MATRIGEL® “spots” were incubated at 37° C. for 30 minutes and covered in growth medium alone or with 10 μM SU5416. After 48 hours of culture, the arrays were stained with Cell Tracker Green in the same manner as in the PEG hydrogel viability assay, but without Hoechst nuclear stain or ethidium homodimer. The arrays were washed with 1×PBS and fixed for 30 minutes in 10% buffered formalin. A green fluorescence and phase contrast z-stack image of each spot was taken at 48 hours after encapsulation using a Nikon TI Eclipse microscope. Total CLS length in each individual spot was quantified manually.

For experiment [4], the system named is HUVECs. The experiment can be described thus: HUVEC proliferation in 3D PEG hydrogel array spots (Click-iT EdU). Particulars: 10 μM SU5416, 24 hours. The procedure: as §1
Experiment [5] concerns HUVECs. The experiment can be described thus: HUVEC viability in 3D PEG hydrogel array spots. The following applies: 10 μM SU5416, 48 hours. The procedure: During hydrogel array fabrication, hydrogel spots contained HUVECs at a density of 2×10^7 cells/mL. The concentration of CRGDS adhesion peptide (SEQ ID NO:2) was adjusted to 0, 0.25, 0.5, 1.0 and 2.0 mM through the addition of PEGNB-CRGDS (SEQ ID NO:2), with the total pendant peptide concentration in all hydrogel spots maintained at 2 mM by adding PEGNB-CRDGS (SEQ ID NO:2). Total polymer percent weight was varied between 4.2, 5 and 7% w/v in the hydrogel spots and 4, 6 and 8% w/v in the backgrounds, with low percent weight hydrogel spots corresponding to low weight percent backgrounds and high percent weight hydrogel spots corresponding to high percent weight backgrounds. During viability experiments, arrays of encapsulated cells were cultured for 48 hours in growth medium alone or with 10 μM SU5416 (Sigma Aldrich), a known inhibitor of VEGFR2 signaling. Medium was replaced 24 hours after encapsulation. After 48 hours of culture, the arrays were washed with serum-free M199 and stained with 5 μM Cell Tracker Green (Invitrogen) for 45 minutes in M199. After 15 minutes of staining, the staining solution was supplemented with Hoechst nuclear stain (Invitrogen) to achieve a final concentration of 10 μg/mL. After staining, the arrays were washed with serum free M199 and incubated for 30 minutes in growth medium containing 2 μM ethidium homodimer (Invitrogen). The arrays were then washed with 1×PBS and fixed for 30 minutes in 10% buffered formalin (Fisher). The arrays were soaked in 1×PBS overnight and photographed using a Nikon TE300 fluorescence microscope within 48 hours of fixation. Viability was quantified by dividing the number of live cell nuclei by total nuclei in the post.

Turning to `Cc1cc(C)c(/C=C2\C(=O)Nc3ccccc32)[nH]1` [SU5416], the “effect of VEGFR2 inhibition on CLS length” value in the experiment with HUVECs [1] (high modulus, 1 mM CRGDS spots) was “decreased CLS length”; in the experiment on HUVECs [1] (low modulus, 2 mM CRGDS spots), “increased CLS length”; in the experiment on HUVECs [1] (medium modulus, 0 mM CRGDS spots), “decreased CLS length”. For the same compound, in the experiment with HUVECs [1] (most hydrogel conditions), the “effect of VEGFR2 inhibition on CLS length compared to growth medium controls” value was “did not cause significant changes”. The “decrease in proliferation compared to the growth medium control” value with HUVECs [2] is 20%. Further, in the experiment on HUVECs [3], the “decrease in total tubule length compared to growth medium only” value came to 50%. Further, the “effect of VEGFR2 inhibition on proliferation” value in the experiment on HUVECs [4] (high modulus, 0 mM CRGDS) is listed as “significant increase in proliferation”; in the experiment on HUVECs [4] (high modulus, all CRGDS concentrations except 0 mM), “significant decreases in proliferation”; in the experiment on HUVECs [4] (low modulus, 0, 0.25 and 1 mM CRGDS), “significant decrease”; in the experiment on HUVECs [4] (low modulus, 2 mM CRGDS), “increased significantly”; in the experiment with HUVECs [4] (medium modulus, 0.5 and 2 mM CRGDS), “significant proliferation decreases”. In the experiment with HUVECs [4] (majority of hydrogel conditions), the “effect of VEGFR2 inhibition on HUVEC proliferation” value is on record as “decreased”. For the same compound, in the experiment on HUVECs [5] (all modulus conditions, spots with 2 mM CRGDS), the “reduction of viability with VEGFR2 inhibition” value is listed as “insignificant”. Moreover, the “effect of VEGFR2 inhibition on cell viability” value with HUVECs [5] (conditions without CRGDS) was “significantly reduced”. In the experiment with HUVECs [5] (high modulus, CRGDS at or above 0.5 mM), the “effect of VEGFR2 inhibition on viability” value is recorded as “not significant”.
